Results reported in patent EP4273147A1, “SUBSTITUTED SPIROLACTAMS, SALTS THEREOF AND THEIR USE AS HERBICIDALLY ACTIVE SUBSTANCES” (Bayer Aktiengesellschaft, priority 2022, dated 2023).

What was measured:
ALOMY [1] = assay: Herbicidal pre-emergence action, section C (Table C2); format: in vivo, Alopecurus myosuroides; details: application rate 320 g/ha; visual grading after ca. 3 weeks
AMARE = assay: Herbicidal pre-emergence action, section C (Table C3); format: in vivo, Amaranthus retroflexus; details: application rate 320 g/ha; visual grading after ca. 3 weeks
From the text: Seeds of mono- and dicotyledonous weed plants and crop plants were sown, in plastic or organic planting pots, in sandy loam and covered with soil. The compounds according to the invention, formulated in the form of wettable powders (WP) or as emulsifiable concentrates (EC), were applied to the surface of the covering soil as aqueous suspension or emulsion, with the addition of 0.5% of an additive, at an application rate of 600 1 of water/ha (converted). Following treatment, the pots were placed in a greenhouse and kept under optimum growth conditions for the test plants.

DIGSA = assay: Herbicidal pre-emergence action, section C (Table C5); format: in vivo, Digitaria sanguinalis; details: application rate 80 g/ha; visual grading after ca. 3 weeks
ECHCG [2] = assay: Herbicidal pre-emergence action, section C (Table C6); format: in vivo, Echinochloa crus-galli; details: visual grading after ca. 3 weeks
LOLRI [3] = assay: Herbicidal pre-emergence action, section C (Table C7); format: in vivo, Lolium rigidum; details: application rate 320 g/ha; visual grading after ca. 3 weeks
MATIN [4] = assay: Herbicidal pre-emergence action, section C (Table C8); format: in vivo, Matricaria inodora; details: application rate 320 g/ha; visual grading after ca. 3 weeks
POLCO = assay: Herbicidal pre-emergence action, section C (Table C9); format: in vivo, Polygonum convolvulus; details: visual grading after ca. 3 weeks
SETVI [5] = assay: Herbicidal pre-emergence action, section C (Table C10); format: in vivo, Setaria viridis; details: application rate 80 g/ha; visual grading after ca. 3 weeks
VERPE [6] = assay: Herbicidal pre-emergence action, section C (Table C11); format: in vivo, Veronica persica; details: application rate 320 g/ha; visual grading after ca. 3 weeks
VIOTR [7] = assay: Herbicidal pre-emergence action, section C (Table C12); format: in vivo, Viola tricolor; details: visual grading after ca. 3 weeks
ABUTH [8] = assay: Herbicidal post-emergence action, section E (Table E1); format: in vivo, Abutilon theophrasti; details: application rate 320 g/ha; assessed visually after ca. 3 weeks
From the text: (§1) 2 to 3 weeks after sowing, the test plants were sprayed in the single-leaf stage.

ALOMY [9] = assay: Herbicidal post-emergence action, section E (Table E2); format: in vivo, Alopecurus myosuroides; details: assessed visually after ca. 3 weeks
From the text: as §1

ECHCG [10] = assay: Herbicidal post-emergence action, section E (Table E5); format: in vivo, Echinochloa crus-galli; details: application rate 320 g/ha; assessed visually after ca. 3 weeks
From the text: as §1

VERPE [11] = assay: Herbicidal post-emergence action, section E (Table E9); format: in vivo, Veronica persica; details: application rate 320 g/ha; assessed visually after ca. 3 weeks
From the text: as §1

VIOTR [12] = assay: Herbicidal post-emergence action, section E (Table E10); format: in vivo, Viola tricolor; details: application rate 320 g/ha; assessed visually after ca. 3 weeks
From the text: as §1

ZEAMX = assay: Post-emergence effects on crop plants (Table F1); format: in vivo, Zea mays; details: application rate 320 g/ha, crop plant ZEAMX
From the text: as §1

TRZAS = assay: Post-emergence effects on crop plants (Table F2); format: in vivo, Triticum aestivum; details: application rate 320 g/ha, crop plant TRZAS
From the text: as §1

ORYZA = assay: Post-emergence effects on crop plants (Table F3); format: in vivo, Oryza sativa; details: application rate 80 g/ha, crop plant ORYZA
From the text: as §1

GLXMA = assay: Post-emergence effects on crop plants (Table F4); format: in vivo, Glycine max; details: application rate 80 g/ha, crop plant GLXMA
From the text: as §1

BRSNW = assay: Post-emergence effects on crop plants (Table F5); format: in vivo, Brassica napus; details: crop plant BRSNW
From the text: as §1

ABUTH [13] = assay: Herbicidal pre-emergence action (Table A1); format: in vivo, Abutilon theophrasti; details: application rate 1280 g/ha; visual grading after ca. 3 weeks vs untreated controls (100% = plants have died off, 0% = as control plants)
Summary of the method: (§2)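 Sandy loam filled the pots; weed seeds went in as paired sowings of one grass-type and one broadleaf species, then were covered with soil.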

ECHCG [14] = assay: Herbicidal pre-emergence action (Table A2); format: in vivo, Echinochloa crus-galli; details: application rate 320 g/ha; visual grading after ca. 3 weeks
Summary of the method: as §2

LOLRI [15] = assay: Herbicidal pre-emergence action (Table A3); format: in vivo, Lolium rigidum; details: Lolium rigidum, pre-emergence, 504 h, application rate 320 g/ha; visual grading after ca. 3 weeks; read-out: pre-emergence activity against LOLRI
Summary of the method: as §2

MATIN [16] = assay: Herbicidal pre-emergence action (Table A4); format: in vivo, Matricaria inodora; details: application rate 320 g/ha; visual grading after ca. 3 weeks
Summary of the method: as §2

SETVI [17] = assay: Herbicidal pre-emergence action (Table A5); format: in vivo, Setaria viridis; details: application rate 1280 g/ha; visual grading after ca. 3 weeks
Summary of the method: as §2

POAAN [18] = assay: Herbicidal pre-emergence action (Table A7); format: in vivo, Poa annua; details: Poa annua, pre-emergence, 504 h; application rate 1280 g/ha; visual grading after ca. 3 weeks; read-out: pre-emergence activity against POAAN
Summary of the method: as §2

ALOMY [19] = assay: Herbicidal pre-emergence action (Table A9); format: in vivo, Alopecurus myosuroides; details: application rate 1280 g/ha; visual grading after ca. 3 weeks
Summary of the method: as §2

KCHSC = assay: Herbicidal pre-emergence action (Table A10); format: in vivo, Kochia scoparia; details: application rate 1280 g/ha; visual grading after ca. 3 weeks
Summary of the method: as §2

VERPE [20] = assay: Herbicidal pre-emergence action (Table A11); format: in vivo, Veronica persica; details: application rate 1280 g/ha; visual grading after ca. 3 weeks
Summary of the method: as §2

ALOMY [21] = assay: Herbicidal post-emergence action (Table B2); format: in vivo, Alopecurus myosuroides; details: application rate 1280 g/ha; rated visually after about 3 weeks
Experimental: Seeds of mono- and dicotyledonous weed plants were placed in plastic pots in sandy loam soil (doubly sown with in each case one species of mono- or dicotyledonous weed plants per pot), covered with soil and cultivated in a greenhouse under controlled growth conditions. 2 to 3 weeks after sowing, the test plants were treated at the one-leaf stage. […] After the test plants had been kept in the greenhouse under optimum growth conditions for about 3 weeks, the activity of the preparations was rated visually in comparison to untreated controls. For example, 100% activity = the plants have died, 0% activity = like control plants.

ECHCG [22] = assay: Herbicidal post-emergence action (Table B3); format: in vivo, Echinochloa crus-galli; details: Echinochloa crus-galli, post-emergence, 504 h; application rate 1280 g/ha; rated visually after about 3 weeks; read-out: post-emergence activity against ECHCG
Summary of the method: (§3)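 Sow weeds in sandy loam pots, one species each; grow in greenhouse 2–3 weeks to one-leaf stage; treat; hold ~3 weeks under optimum conditions; rate damage visually vs untreated (0–100%).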

POAAN [23] = assay: Herbicidal post-emergence action (Table B7); format: in vivo, Poa annua; details: application rate 1280 g/ha
Summary of the method: as §3

SETVI [24] = assay: Herbicidal post-emergence action (Table B8); format: in vivo, Setaria viridis; details: application rate 1280 g/ha
Summary of the method: as §3

VERPE [25] = assay: Herbicidal post-emergence action (Table B10); format: in vivo, Veronica persica; details: application rate 1280 g/ha
Summary of the method: as §3

ABUTH [26] = assay: Herbicidal pre-emergence action, section C (Table C1); format: in vivo, Abutilon theophrasti; details: application rate 320 g/ha; visual grading after ca. 3 weeks
SETVI [27] = assay: Herbicidal post-emergence action, section E (Table E8); format: in vivo, Setaria viridis; details: application rate 320 g/ha; assessed visually after ca. 3 weeks
From the text: as §1

With O=C1N(Cc2c(F)cccc2F)CCCC12CCCN(Cc1c(F)cccc1F)C2=O (racemic) [I-006, 2,8-bis[(2,6-difluorophenyl)methyl]-2,8-diazaspiro[5.5]undecane-1,7-dione] the “pre-emergence activity against ALOMY” value (ALOMY [1]) was 100%, the “pre-emergence activity against AMARE” value (AMARE) was 90% and the “pre-emergence activity against DIGSA” value (DIGSA) was 100%. The “pre-emergence activity against ECHCG” value (ECHCG [2]; application rate 320 g/ha) was 100%, the “pre-emergence activity against LOLRI” value (LOLRI [3]) was 100% and the “pre-emergence activity against MATIN” value (MATIN [4]) was 80%. The “pre-emergence activity against POLCO” value (POLCO; application rate 80 g/ha) was 100%, the “pre-emergence activity against SETVI” value (SETVI [5]) was 100% and the “pre-emergence activity against VERPE” value (VERPE [6]) was 90%. The “pre-emergence activity against VIOTR” value (VIOTR [7]; application rate 38 g/ha (so in the source)) was 90%, the “post-emergence activity against ABUTH” value (ABUTH [8]) was 80% and the “post-emergence activity against ALOMY” value (ALOMY [9]; application rate 320 g/ha) was 90%. For the same molecule, the “post-emergence activity against ECHCG” value (ECHCG [10]) was 80%, the “post-emergence activity against VERPE” value (VERPE [11]) was 80% and the “post-emergence activity against VIOTR” value (VIOTR [12]) was 80%. The “post-emergence activity against ZEAMX” value (ZEAMX) was 20%, the “post-emergence activity against TRZAS” value (TRZAS) was 10% and the “post-emergence activity against ORYZA” value (ORYZA) was 10%. For the same molecule, the “post-emergence activity against GLXMA” value (GLXMA) was 20% and the “post-emergence activity against BRSNW” value (BRSNW; application rate 80 g/ha) was 20%.
In the case of O=C1N(Cc2ccccc2)CCCC12CCCN(Cc1ccccc1F)C2=O (racemic) [I-010, 2-benzyl-8-(2-fluorobenzyl)-2,8-diazaspiro[5.5]undecane-1,7-dione], the “pre-emergence activity against ABUTH” value (ABUTH [13]) is reported as 90%, the “pre-emergence activity against ECHCG” value (ECHCG [14]) is reported as 100% and the pest or weed control at 320 g/ha (LOLRI [15]) is reported as 100%. The “pre-emergence activity against MATIN” value (MATIN [16]) was 90%, the “pre-emergence activity against SETVI” value (SETVI [17]) was 90% and the pest or weed control at 1280 g/ha (POAAN [18]) was 100%. For the same molecule, the “pre-emergence activity against ALOMY” value (ALOMY [19]) was 90%, the “pre-emergence activity against KCHSC” value (KCHSC) was 90% and the “pre-emergence activity against VERPE” value (VERPE [20]) was 90%. The “post-emergence activity against ALOMY” value (ALOMY [21]) was 90%, the pest or weed control at 1280 g/ha (ECHCG [22]) was 90% and the “post-emergence activity against POAAN” value (POAAN [23]) was 90%. The “post-emergence activity against SETVI” value (SETVI [24]) was 90%, the “post-emergence activity against VERPE” value (VERPE [25]) was 90% and the “pre-emergence activity against ABUTH” value (ABUTH [26]) was 90%. For the same molecule, the “pre-emergence activity against ALOMY” value (ALOMY [1]) was 100%, the “pre-emergence activity against ECHCG” value (ECHCG [2]; application rate 80 g/ha) was 100% and the “pre-emergence activity against LOLRI” value (LOLRI [3]) was 100%. The “pre-emergence activity against MATIN” value (MATIN [4]) was 90%, the “pre-emergence activity against POLCO” value (POLCO; application rate 320 g/ha) was 80% and the “pre-emergence activity against SETVI” value (SETVI [5]) was 100%. For the same molecule, the “pre-emergence activity against VERPE” value (VERPE [6]) was 80%, the “pre-emergence activity against VIOTR” value (VIOTR [7]; application rate 80 g/ha) was 80% and the “post-emergence activity against ABUTH” value (ABUTH [8]) was 80%. The “post-emergence activity against ALOMY” value (ALOMY [9]; application rate 80 g/ha) was 80%, the “post-emergence activity against ECHCG” value (ECHCG [10]) was 90% and the “post-emergence activity against SETVI” value (SETVI [27]) was 80%. The “post-emergence activity against TRZAS” value (TRZAS) was 0%, the “post-emergence activity against ORYZA” value (ORYZA) was 0% and the “post-emergence activity against BRSNW” value (BRSNW; application rate 320 g/ha) was 0%.
